According to PubChem BioAssay (NCI):
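Exposure lasted 48 hours, with cells grown in 96-well plates and compounds tested at five concentrations. GI50 = concentration required for 50% inhibition of growth. TGI marks complete inhibition of growth.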

Key:
Experiment in all cases: DTP human tumour cell line panel, 48 h
[1] = test system: SF-295 CNS
[2] = test system: MDA-MB-435
[3] = test system: EKVX NSCLC
[4] = test system: SF-539 CNS
[5] = test system: 786-0 renal
[6] = test system: SK-OV-3 ovarian
[7] = test system: ACHN renal
[8] = test system: OVCAR-8 ovarian
[9] = test system: MCF7 breast
[10] = test system: DU-145 prostate
[11] = test system: UACC-62 melanoma
[12] = test system: SNB-19 CNS
[13] = test system: HL-60(TB) leukemia
[14] = test system: T-47D breast
[15] = test system: OVCAR-5 ovarian
[16] = test system: SK-MEL-5 melanoma
[17] = test system: HCT-116 colon
[18] = test system: OVCAR-4 ovarian
[19] = test system: NCI/ADR-RES ovarian
[20] = test system: SN12C renal
[21] = test system: A498 renal
[22] = test system: KM12 colon
[23] = test system: SNB-75 CNS
[24] = test system: NCI-H522 lung
[25] = test system: NCI-H460 lung
[26] = test system: MDA-MB-231 breast
[27] = test system: COLO 205 colon
[28] = test system: HOP-62 NSCLC
[29] = test system: CAKI-1 renal
[30] = test system: U251 CNS
[31] = test system: TK-10 renal
[32] = test system: UO-31 renal
[33] = test system: HS 578T breast
[34] = test system: IGROV1 ovarian
[35] = test system: LOX IMVI melanoma
[36] = test system: A549 NSCLC
[37] = test system: HOP-92 NSCLC
[38] = test system: HT29 colon
[39] = test system: HCC-2998 colon
[40] = test system: HCT-15 colon
[41] = test system: UACC-257 melanoma
[42] = test system: SK-MEL-2 melanoma
[43] = test system: SK-MEL-28 melanoma
[44] = test system: SW-620 colon
[45] = test system: BT-549 breast
[46] = test system: M14 melanoma
[47] = test system: NCI-H226 lung
[48] = test system: K-562 leukemia
[49] = test system: MALME-3M melanoma
[50] = test system: SF-268 CNS
[51] = test system: RXF 393 renal
[52] = test system: PC-3 prostate
[53] = test system: RPMI-8226 leukemia
[54] = test system: CCRF-CEM leukemia

Molecule `Nc1nc(N)c2c(n1)NC(c1ccccc1)CC(c1ccc(Nc3nc(NCCO)nc(Nc4ccc(Cl)cc4)n3)cc1)=N2` (configuration not stated) has a GI50 [1] of 1.57 µM, a TGI [1] of 2.97 µM and a GI50 [2] of 1.74 µM. For the same molecule, the TGI [2] was 3.17 µM, the GI50 [3] was 1.64 µM and the TGI [3] was 3.17 µM. It also gave a GI50 [4] of 1.6 µM, a TGI [4] of 3.06 µM and a GI50 [5] of 1.63 µM. For the same molecule, the TGI [5] was 3.08 µM, the GI50 [6] was 17.7 µM and the TGI [6] was 32 µM. The GI50 [7] was 1.95 µM, the TGI [7] was 4.36 µM and the GI50 [8] was 1.46 µM. The TGI [8] was 3.1 µM, the GI50 [9] was 1.51 µM and the TGI [9] was 3.04 µM. It also gave a GI50 [10] of 1.8 µM, a TGI [10] of 3.38 µM and a GI50 [11] of 1.84 µM. For the same molecule, the TGI [11] was 3.32 µM, the GI50 [12] was 1.58 µM and the TGI [12] was 2.99 µM. The GI50 [13] was 0.319 µM, the TGI [13] was 1.48 µM and the GI50 [14] was 1.52 µM. It also gave a TGI [14] of 3.32 µM, a GI50 [15] of 1.94 µM and a TGI [15] of 3.75 µM. The GI50 [16] was 1.42 µM, the TGI [16] was 2.72 µM and the GI50 [17] was 1.51 µM. It also gave a TGI [17] of 2.84 µM, a GI50 [18] of 1.72 µM and a TGI [18] of 3.76 µM. For the same molecule, the GI50 [19] was 4.33 µM, the TGI [19] was > 100 µM and the GI50 [20] was 1.74 µM. It also gave a TGI [20] of 3.54 µM, a GI50 [21] of 1.54 µM and a TGI [21] of 3.03 µM. The GI50 [22] was 1.9 µM, the TGI [22] was 3.54 µM and the GI50 [23] was 1.56 µM. The TGI [23] was 3.13 µM, the GI50 [24] was 1.79 µM and the TGI [24] was 3.48 µM. The GI50 [25] was 1.85 µM, the TGI [25] was 3.47 µM and the GI50 [26] was 1.75 µM. It also gave a TGI [26] of 3.48 µM, a GI50 [27] of 1.79 µM and a TGI [27] of 3.31 µM. It also gave a GI50 [28] of 1.74 µM, a TGI [28] of 3.24 µM and a GI50 [29] of 2.3 µM. It also gave a TGI [29] of 5.79 µM, a GI50 [30] of 1.53 µM and a TGI [30] of 2.99 µM. It also gave a GI50 [31] of 2.09 µM, a TGI [31] of 3.87 µM and a GI50 [32] of 1.87 µM. The TGI [32] was 4.29 µM, the GI50 [33] was 1.98 µM and the TGI [33] was 5.15 µM. For the same molecule, the GI50 [34] was 1.56 µM, the TGI [34] was 3.13 µM and the GI50 [35] was 1.54 µM. For the same molecule, the TGI [35] was 2.95 µM, the GI50 [36] was 2.84 µM and the TGI [36] was 9.18 µM. The GI50 [37] was 1.42 µM, the TGI [37] was 3.09 µM and the GI50 [38] was 1.77 µM. For the same molecule, the TGI [38] was 3.33 µM, the GI50 [39] was 1.68 µM and the TGI [39] was 3.1 µM. It also gave a GI50 [40] of 1.38 µM, a TGI [40] of 2.84 µM and a GI50 [41] of 1.9 µM. For the same molecule, the TGI [41] was 3.49 µM, the GI50 [42] was 1.38 µM and the TGI [42] was 2.78 µM. The GI50 [43] was 1.73 µM, the TGI [43] was 3.12 µM and the GI50 [44] was 1.87 µM. The TGI [44] was 3.48 µM, the GI50 [45] was 1.77 µM and the TGI [45] was 3.2 µM. For the same molecule, the GI50 [46] was 1.84 µM, the TGI [46] was 3.35 µM and the GI50 [47] was 11.5 µM. The TGI [47] was 31.3 µM.
Work on `CS(=O)(=O)c1nccc(-c2c(-c3cccc(OCc4ccc(Cl)c(C(F)(F)F)c4)c3)nc3sccn23)n1` yielded a GI50 [1] of 7.15 µM, a TGI [1] of 15.2 µM and a GI50 [2] of 9.02 µM. For the same molecule, the TGI [2] was 17.9 µM, the GI50 [3] was 6.92 µM and the TGI [3] was 14.4 µM. The GI50 [4] was 7.64 µM, the TGI [4] was 15 µM and the GI50 [5] was 8.45 µM. The TGI [5] was 15.3 µM, the GI50 [6] was 10.3 µM and the TGI [6] was 33.7 µM. It also gave a GI50 [7] of 5.6 µM, a TGI [7] of 11.6 µM and a GI50 [8] of 7.09 µM. The TGI [8] was 13.8 µM, the GI50 [9] was 0.937 µM and the TGI [9] was 1.98 µM. For the same molecule, the GI50 [10] was 5.01 µM, the TGI [10] was 10.8 µM and the GI50 [11] was 8.49 µM. It also gave a TGI [11] of 16.9 µM, a GI50 [12] of 6.53 µM and a TGI [12] of 13 µM. The GI50 [13] was 0.997 µM, the TGI [13] was 2.52 µM and the GI50 [14] was 0.881 µM. It also gave a TGI [14] of 1.82 µM, a GI50 [15] of 8.78 µM and a TGI [15] of 18.8 µM. The GI50 [48] was 2.1 µM, the TGI [48] was > 50 µM and the GI50 [49] was 7.27 µM. The TGI [49] was 14.6 µM, the GI50 [16] was 7.98 µM and the TGI [16] was 14.9 µM. For the same molecule, the GI50 [17] was 6.53 µM, the TGI [17] was 12.9 µM and the GI50 [18] was 6.46 µM. For the same molecule, the TGI [18] was 13.8 µM, the GI50 [19] was 9 µM and the TGI [19] was 19.1 µM. The GI50 [20] was 7.07 µM, the TGI [20] was 23.1 µM and the GI50 [21] was 7.15 µM. The TGI [21] was 13.8 µM, the GI50 [50] was 8.49 µM and the TGI [50] was 17.6 µM. For the same molecule, the GI50 [22] was 9.47 µM, the TGI [22] was 17.8 µM and the GI50 [23] was 6.74 µM. It also gave a TGI [23] of 17.9 µM, a GI50 [24] of 1.65 µM and a TGI [24] of 8.06 µM. For the same molecule, the GI50 [25] was 2 µM, the TGI [25] was 7.28 µM and the GI50 [26] was 1.07 µM. For the same molecule, the TGI [26] was 2.38 µM, the GI50 [27] was 7.02 µM and the TGI [27] was 13.9 µM. The GI50 [51] was 4.31 µM, the TGI [51] was 10.9 µM and the GI50 [28] was 7.26 µM. For the same molecule, the TGI [28] was 14.1 µM, the GI50 [29] was 7.54 µM and the TGI [29] was 14.7 µM. For the same molecule, the GI50 [30] was 7.53 µM, the TGI [30] was 14.4 µM and the GI50 [31] was 7.99 µM. It also gave a TGI [31] of 14.9 µM, a GI50 [32] of 7.16 µM and a TGI [32] of 13.7 µM. For the same molecule, the GI50 [33] was 1.69 µM, the TGI [33] was 8.73 µM and the GI50 [34] was 1.64 µM. The TGI [34] was 5.95 µM, the GI50 [35] was 0.809 µM and the TGI [35] was 1.63 µM. For the same molecule, the GI50 [36] was 18.1 µM, the TGI [36] was > 50 µM and the GI50 [37] was 2.17 µM. It also gave a TGI [37] of 9.74 µM, a GI50 [52] of 1.8 µM and a TGI [52] of 6.61 µM. It also gave a GI50 [38] of 7.99 µM, a TGI [38] of 16.3 µM and a GI50 [39] of 0.91 µM. The TGI [39] was 1.68 µM, the GI50 [40] was 1.02 µM and the TGI [40] was 2.42 µM. It also gave a GI50 [53] of 1.33 µM, a TGI [53] of 3.64 µM and a GI50 [41] of 4.04 µM. It also gave a TGI [41] of 10.8 µM, a GI50 [42] of 3.31 µM and a TGI [42] of 9.61 µM. It also gave a GI50 [43] of 6.48 µM, a TGI [43] of 13.1 µM and a GI50 [44] of 1.79 µM. The TGI [44] was 6.84 µM, the GI50 [45] was 1.52 µM and the TGI [45] was 5.51 µM. For the same molecule, the GI50 [46] was 6.93 µM, the TGI [46] was 14.1 µM and the GI50 [47] was 2.4 µM. For the same molecule, the TGI [47] was 11.9 µM, the GI50 [54] was 1.67 µM and the TGI [54] was > 50 µM.
